Assay results as given in PMC10279640 (Nature Communications, 2023).
pKd: −log10 of the molar value. Square brackets hold non-standard residues; d marks the D form. Peptide text beside a SMILES is read from it. sY = N[C@@H](Cc1ccc(OS(=O)(=O)O)cc1)C(=O)O

Key:
[1] = system: P. knowlesi PvDBP^OR/PkDBPβγ^KO; settings: PvDBP-expressing P. knowlesi, at the concentrations tested
[2] = system: P. knowlesi wild-type A1-H.1
[3] = biological target: PvDBP-RII (Plasmodium vivax, UniProt P22290, S353A/T257A/T422A); experiment: biochemical; type: binding

In the case of “Ac-QLDFEDVWNSSYGVNDSFPDGDYDANLEL-NH2 [non-sulfated]”, the “growth inhibition (in words)” value [1] was “no growth inhibition observed” and the “growth inhibition (in words)” value [2] was “no inhibition observed”.
Compound CC(=O)N[C@@H](CCC(N)=O)C(=O)N[C@@H](CC(C)C)C(=O)N[C@@H](CC(=O)O)C(=O)N[C@@H](Cc1ccccc1)C(=O)N[C@@H](CCC(=O)O)C(=O)N[C@@H](CC(=O)O)C(=O)N[C@H](C(=O)N[C@@H](Cc1c[nH]c2ccccc12)C(=O)N[C@@H](CC(N)=O)C(=O)N[C@@H](CO)C(=O)N[C@@H](CO)C(=O)N[C@@H](Cc1ccc(OS(=O)(=O)O)cc1)C(=O)NCC(=O)N[C@H](C(=O)N[C@@H](CC(N)=O)C(=O)N[C@@H](CC(=O)O)C(=O)N[C@@H](CO)C(=O)N[C@@H](Cc1ccccc1)C(=O)N1CCC[C@H]1C(=O)N[C@@H](CC(=O)O)C(=O)NCC(=O)N[C@@H](CC(=O)O)C(=O)N[C@@H](Cc1ccc(O)cc1)C(=O)N[C@@H](CC(=O)O)C(=O)N[C@@H](C)C(=O)N[C@@H](CC(N)=O)C(=O)N[C@@H](CC(C)C)C(=O)N[C@@H](CCC(=O)O)C(=O)N[C@@H](CC(C)C)C(N)=O)C(C)C)C(C)C [Y30-S] (Ac-QLDFEDVWNSS[sY]GVNDSFPDGDYDANLEL-NH2) has a pKd [3] of 6.26.
